Our source for the LD50 and ED (doubling of urinary volume) values is patent publication US4761422A, “(2-amino-4-aryl-thiazole-5-yl)ethanols and their derivatives having diuretic activity and methods for preparing the same” (Lusofarmaco Istituto Lusofarmaco d'Italia SpA, priority 1986, dated 1988).

A short description of series [1]: Acute toxicity in rat (DL50). The settings on record: in vivo, ip.
Series [2] is described as follows: Diuretic activity in rat (DA200, dosage causing doubling of the urinary volume), method of Fregnan et al. The series is classed as in vivo. The settings on record: po, os. The text has this:
The diuretic activity has been determined according to the method by G. B. Fregnan et al., Gazzetta Medica Italiana 128, 384 (1969).
In the Table given hereinbelow the pharmacological data of some of the compounds according to the invention in comparison with thienyl acid are set forth.
*Dosage causing doubling of the urinary volume

What is called LD50 is the dose expected to kill half of the subjects tested. Low values mean greater toxicity, high ones lower toxicity. On to `O=C(O)COc1ccc(C(=O)c2cccs2)c(Cl)c1Cl` [Thienyl acid, reference compound], for which the LD50 in series [1] is 350 mg/kg. This compound yielded an ED (doubling of urinary volume) in series [2] of 100 mg/kg.

As to `Nc1nc(-c2ccc(Cl)cc2)c(CCO)s1` [LR 409, 2-[2-amino-4-(p-chlorophenyl)thiazole-5-yl]ethanol], the LD50 in series [1] came to 280 mg/kg. This compound registered an ED (doubling of urinary volume) in series [2] of 30 mg/kg.

`CCN(CC)c1nc(-c2ccc(Cl)cc2)c(CCO)s1` [LR 440, 2-[2-diethylamino-4-(p-chlorophenyl)thiazole-5-yl]ethanol] displayed a 50% lethal dose (LD50) in series [1] greater than 1000 mg/kg. The compound also displayed an ED (doubling of urinary volume) in series [2] of 100 mg/kg.

In series [1], `NC(=O)OCCc1sc(N)nc1-c1ccc(Cl)cc1` [LR 890, 2-[2-amino-4-(p-chlorophenyl)thiazole-5-yl]ethanol carbamate] displayed an LD50 greater than 2000 mg/kg. This compound displayed an ED (doubling of urinary volume) in series [2] of 3 mg/kg.

In turn, `CNc1nc(-c2ccc(Cl)cc2)c(CCOC(N)=O)s1` [LR 892, 2-[2-methylamino-4-(p-chlorophenyl)thiazole-5-yl]ethanol carbamate] had an LD50 in series [1] greater than 1000 mg/kg. This compound also yielded an ED (doubling of urinary volume) in series [2] of 10 mg/kg.

Consider `CNc1nc(-c2ccc(Cl)cc2)c(CCO)s1` [LR 861, 2-[2-methylamino-4-(p-chlorophenyl)thiazole-5-yl]ethanol], for which the LD50 in series [1] came to 750 mg/kg. The compound further returned an ED (doubling of urinary volume) in series [2] of 100 mg/kg.

The compound `NC(=O)NC(=O)OCCc1sc(N)nc1-c1ccc(Cl)cc1` [LR 856] displayed an LD50 in series [1] greater than 1000 mg/kg. Besides, in series [2], the ED (doubling of urinary volume) came out at 5 mg/kg.

`CCN(CC)c1nc(-c2ccc(Cl)cc2)c(CCOC(N)=O)s1` [LR 525, 2-[2-diethylamino-4-(p-chlorophenyl)thiazole-5-yl]ethanol carbamate] gave a 50% lethal dose (LD50) in series [1] greater than 2000 mg/kg. In series [2], this compound had an ED (doubling of urinary volume) of 3 mg/kg.
